Several values for one entry are separate records, joined by “and”; a condition that tells them apart may be missing. Equal entries are not always repeated.
Tests used:
[1] = tested on: Klebsiella pneumoniae harboring NDM-1; experiment: Time-kill study with meropenem; format: cell-based; conditions: Example 26 + 4 mg/L meropenem
Experimental: Mueller-Hinton broth (MHB) was warmed from fridge temperature cold. […] A sample of Example 26 was dissolved in DMSO.
The 96-well plates were prepared using a multi-channel pipette, adding […] PBS to columns 2-9, or the required number of dilutions needed in the experiment. Each Inoculum was prepared by picking a single colony from the fresh plate that was disperged into 1 mL MHB, the loop was agitated to ensure all the colony comes off the loop. The tube was Vortex mixed, and a 100 μL aliquot was taken from the tube into 9.9 mL of MHB into the media bottle. […] The procedure was repeated for as many samples needed in the study. Aliquots of 5 mL inoculum were transferred to as many media bottles as needed, e.g. 4 mg/L MEM, 4 mg/L MEM+50 μM test substance, 4 mg/L MEM+100 μM test substance. Then […] aliquots were taken from each culture and added to Column 1 on the 96 well plate, e.g. culture 1: 50 μl into A1, […] into B1 etc. for time point 0 h. Then […] MEM was added into each bottle, followed by the required amount of test substance. The bottles were mixed gently to avoid formation of bubbles, and incubated in a secondary container at 37° C. at 180 rpm. Finally, serial dilutions were performed using multi-channel pipette taking 30 μL for column 1, adding to column 2, mixing well, repeating from column 2 to 3 with clean pipette tips.

P. mirabilis (NDM-1) = experiment: Microbroth dilution MIC of meropenem ± 25 mg/L inhibitor; format: cell-based
Experimental: (§1) • Plate bacterial strain(s) on appropriate media: • Gram-negative bacteria with ESBLs or carbapenemases: green agar plates with 100 mg/L ampicillin • Gram-negative bacteria without β-lactamases: green agar plates • Gram-positive bacteria (Staphylococci and Enterococci): blood agar plates • Incubate o.n. at 37° C. Day 2: Prepare the Bacterial Inoculum: • Prepare a 0.5 McFarland suspension of bacteria in 0.85% NaCl. (Should be used within 15 min of preparation). • Dilute the 0.5 McFarland suspension 1:100 into MH broth. Check the inoculum by diluting the prepared bacterial suspension 1:100 (10 μl bacterial suspension+990 μl 0.85% NaCl). Plate 10 μl of the dilution on MH agar plates (×2). Incubate o.n. at 37° C., count the colonies and calculate the final CFU/ml inoculum in the plate by multiplying the average number of colonies with 10000 and divide by 2. The final inoculum should be between 3-7×10^5 CFU/ml. • Add 50 μl of the prepared bacterial suspension to each well in the microtiter plate except negative growth control. Preparation of Compounds/Antibiotics • Calculate the desired concentration-range and volume of the compounds/antibiotics in the assay. […] Dilute the stock solution in MH broth. Make subsequent 2-fold dilutions in MH broth of the desired concentrations if a concentration range is to be tested (remember the extra dilution factor in the assay plate). Always include extra volume for pipetting. Take into consideration stock solutions that are made in buffers that have an effect on bacterial growth (e.g. DMSO).

C. freundii (NDM) = experiment: as above; format: cell-based
Experimental: as §1

P. stuartii (NDM-1) = experiment: as above; format: cell-based
Experimental: as §1

E. coli (VIM-1) = experiment: as above; format: cell-based
Experimental: as §1

K. pneumoniae (VIM) = experiment: as above; format: cell-based
Experimental: as §1

[2] = tested on: M. morganii (OXA48+ NDM-1); experiment: as above; format: cell-based
Experimental: as §1

K. pneumoniae (NDM-1) = experiment: as above; format: cell-based; conditions: K. pneumoniae NDM-1 (several strains)
Experimental: as §1

E. cloacae (VIM) = experiment: as above; format: cell-based
Experimental: as §1

P. stuartii (NDM) = experiment: as above; format: cell-based
Experimental: as §1

K. pneumoniae (NDM-7) = experiment: as above; format: cell-based
Experimental: as §1

C. freundii (NDM-1) = experiment: as above; format: cell-based
Experimental: as §1

[3] = tested on: Klebsiella pneumoniae strain 50752501 harbouring NDM-1; experiment: In vivo peritonitis infection study in neutropenic mice; set-up: Score at sampling: scale not given here; conditions: for Blood log CFU/ml mean / Blood log CFU/ml / Score at sampling / Pf log CFU/ml mean / Pf log CFU/ml: sampling T = 5; for Blood log CFU/ml / Score at sampling / Pf log CFU/ml: individual mice; for Pf log CFU/ml mean / Pf log CFU/ml: peritoneal fluid
Experimental: The purpose of this study was to investigate the synergy between a typical example of the present invention and a state of art carbapenem in a clinically relevant multiresistant Gram-negative bacterial strain harboring a metallo-β-lactamase in the treatment of live mice infected with the bacterial strain.
The mice were rendered neutropenic by injecting 0.5 ml cyclophosphamide solution intraperitoneally 4 days (approximately 200 mg/kg) and 1 day (approximately 100 mg/kg) prior to inoculation.
Fresh overnight colonies from a 5% Horse Blood Agar plate were suspended and diluted in sterile saline to approximately and 10^7 CFU/ml. Mice were inoculated intraperitoneally with 0.5 ml of the suspension. Approximately ½ hr prior to inoculation, mice were treated orally with 45 μl neurophen (20 mg ibuprofen/ml corresponding to approximately 30 mg/kg) as a pain relief.
Mice were treated subcutaneously in the neck region with.
Colony counts were determined from blood and peritoneal fluid at 1 and 5 hrs post inoculation. […] The mice were sacrificed immediately after blood sampling and a total of 2 ml sterile saline was injected i.p. and the abdomen gently massaged before it was opened and fluid sampled with a pipette. Each sample was then 10 fold serial diluted in saline and 20-μl spots, ranging from undiluted to a 10^6 dilution, were applied on agar plates in duplicates. […] All agar plates were incubated 18-22 hrs at 35° C. in ambient air.

[4] = Example 26 10 mg/kg s.c. + meropenem 33 mg/kg
[5] = Example 26 10 mg/kg s.c. + vehicle
[6] = Example 26 10 mg/kg s.c. + vehicle, 10 mg/kg
[7] = Example 26 33 mg/kg s.c. + meropenem 33 mg/kg
[8] = Example 26 33 mg/kg s.c. + vehicle
[9] = Example 26 33 mg/kg s.c. + vehicle, 33 mg/kg
[10] = Example 26 100 mg/kg s.c. + meropenem 33 mg/kg
[11] = Example 26 100 mg/kg s.c. + vehicle
[12] = Example 26 100 mg/kg s.c. + vehicle, 100 mg/kg
[13] = combination treatment with Example 26 and meropenem

For `CN(C[C@H](O)[C@@H](O)[C@H](O)[C@H](O)CO)C(=O)c1ccc(CN(Cc2ccccn2)Cc2ccccn2)nc1` [Example 26, 6-((bis(pyridin-2-ylmethyl)amino)methyl)-N-methyl-N-((2S,3R,4R,5R)-2,3,4,5,6-pentahydroxyhexyl)nicotinamide], the “time after which CFU drops to below the limit of detection (LOD)” value ([1]; irrespective of the concentration of Example 26) was 5 to 10 h, the “period CFU stays below LOD” value ([1]; period of the study) was no less than 30 h and the “MIC meropenem + 25 mg/L Example 26” value (P. mirabilis (NDM-1)) was 0.125 µg/mL. The “MIC meropenem + 25 mg/L Example 26” value (C. freundii (NDM)) was 0.06 µg/mL, the “MIC meropenem + 25 mg/L Example 26” value (P. stuartii (NDM-1)) was 0.06 µg/mL and the “MIC meropenem + 25 mg/L Example 26” value (E. coli (VIM-1)) was less than 0.03 µg/mL. The “MIC meropenem + 25 mg/L Example 26” value (K. pneumoniae (VIM)) was 0.06 µg/mL, the “MIC meropenem + 25 mg/L Example 26” value [2] was 1 µg/mL and the “MIC meropenem + 25 mg/L Example 26” value (K. pneumoniae (NDM-1)) was 0.125 µg/mL. The “MIC meropenem + 25 mg/L Example 26” value (E. cloacae (VIM)) was less than 0.03 µg/mL, the “MIC meropenem + 25 mg/L Example 26” value (P. stuartii (NDM)) was 0.25 µg/mL and the “MIC meropenem + 25 mg/L Example 26” value (K. pneumoniae (NDM-7)) was less than 0.03 µg/mL. The “MIC meropenem + 25 mg/L Example 26” value (C. freundii (NDM-1)) was 0.06 µg/mL, the “reduction of the CFU levels compared to vehicle treatment in blood and peritoneal fluid” value ([3]; 10-100 mg/kg Example 26 alone) was “did not result in reduction of the CFU levels” and the “Blood log CFU/ml mean” value [3, 4] was 1.61 log CFU/ml. For the same compound, the “Blood log CFU/ml” value [3, 4] was 1.90 log CFU/ml and 1.00 log CFU/ml and 1.85 log CFU/ml and 1.70 log CFU/ml, the Score at sampling [3, 4] was 2 and the “Blood log CFU/ml mean” value [3, 5] was 5.88 log CFU/ml. The Score at sampling [3, 5] was 2, the “Blood log CFU/ml” value [3, 6] was 6.02 log CFU/ml and 5.70 log CFU/ml and 5.90 log CFU/ml and 5.89 log CFU/ml and the “Blood log CFU/ml mean” value [3, 7] was 1.26 log CFU/ml. For the same compound, the “Blood log CFU/ml” value [3, 7] was 1.78 log CFU/ml (2×) and 1.00 log CFU/ml and 0.50 log CFU/ml, the Score at sampling [3, 7] was 1 and the “Blood log CFU/ml mean” value [3, 8] was 5.89 log CFU/ml. For the same compound, the Score at sampling [3, 8] was 1, the “Blood log CFU/ml” value [3, 9] was 5.83 log CFU/ml and 5.54 log CFU/ml and 6.78 log CFU/ml and 5.40 log CFU/ml and the “Blood log CFU/ml mean” value [3, 10] was 1.18 log CFU/ml. The “Blood log CFU/ml” value [3, 10] was 1.30 log CFU/ml and 0.50 log CFU/ml and 1.90 log CFU/ml and 1.00 log CFU/ml, the Score at sampling [3, 10] was 1 and the “Blood log CFU/ml mean” value [3, 11] was 5.84 log CFU/ml. The Score at sampling [3, 11] was 1, the “Blood log CFU/ml” value [3, 12] was 5.83 log CFU/ml and 6.05 log CFU/ml and 5.48 log CFU/ml and 6.02 log CFU/ml and the “lower CFU levels compared to vehicle treatment, blood” value [3, 13] was 3.95-4.38 log10. For the same compound, the “lower CFU levels compared to vehicle treatment, peritoneal fluid” value [3, 13] was 3.57-3.66 log10, the “Pf log CFU/ml mean” value [3, 4] was 3.83 log CFU/ml and the “Pf log CFU/ml” value [3, 4] was 4.18 log CFU/ml and 3.83 log CFU/ml and 3.60 log CFU/ml and 3.72 log CFU/ml. The “Pf log CFU/ml mean” value [3, 5] was 7.79 log CFU/ml, the “Pf log CFU/ml” value [3, 6] was 7.92 log CFU/ml and 7.68 log CFU/ml and 7.76 log CFU/ml and 7.81 log CFU/ml and the “Pf log CFU/ml mean” value [3, 7] was 3.80 log CFU/ml. The “Pf log CFU/ml” value [3, 7] was 3.88 log CFU/ml and 3.80 log CFU/ml and 3.68 log CFU/ml and 3.85 log CFU/ml, the “Pf log CFU/ml mean” value [3, 8] was 7.60 log CFU/ml and the “Pf log CFU/ml” value [3, 9] was 7.68 log CFU/ml and 7.51 log CFU/ml and 7.88 log CFU/ml and 7.35 log CFU/ml. For the same compound, the “Pf log CFU/ml mean” value [3, 10] was 3.74 log CFU/ml, the “Pf log CFU/ml” value [3, 10] was 3.65 log CFU/ml (2×) and 3.74 log CFU/ml and 3.92 log CFU/ml and the “Pf log CFU/ml mean” value [3, 11] was 7.93 log CFU/ml. The “Pf log CFU/ml” value [3, 12] was 8.24 log CFU/ml and 7.89 log CFU/ml and 7.63 log CFU/ml and 7.98 log CFU/ml.
